The source of these data is patent US20260273020A1, “OBESTATIN FOR USE AS ANTINEOPLASTIC AGENT IN THE TREATMENT OF PANCREATIC CANCER” (SERVIZO GALEGO DE SAÚDE, priority 2023, published 2026).

This assay can be described thus: Pancreatic cancer associated cachexia: skeletal muscle weight, food intake. The format is in vivo, C57BL/6J mice. The conditions noted are these: tumour-bearing mice. As for the experimental part: FIG. 9. Analysis of obestatin action on skeletal muscle cachexia of C57BL/6J mice (n=4) orthotopically injected with KPC FC1242 cells and treated with vehicle [NaCl, 0.9% (w/v)] or obestatin (500 nmol/Kg/72 h). Tibialis anterior (TA), gastrocnemius (GA), soleus (SOL), extensor digitorum longus (EDL) and diaphragm (DIA) muscles were collected and weighted at day 12 after tumour injection. Results are expressed as the percentage of the weight recovery of the muscle of obestatin-treated mice related to vehicle treated mice (mean±SE).
In vivo experiments were carried out in C57BL/6 mice, obtained from the Central Animal Facility of the University of Santiago de Compostela. Male C57BL/6 mice, weighing 25 g on arrival, were housed four per cage at a constant temperature of 22±2° C. and at a 12 h light/dark cycle. The mice were kept for 5 days for acclimation, with free access to water, and a standard mice chow with a composition of 5.5% fat, 23% protein and 70% carbohydrate (SAFE-Panlab, Spain).
The mice were assigned to the different groups (n=4/group) and treated for five days with: 1) healthy control, 2) tumour+vehicle [NaCl, 0.9% (w/v)], and 3) tumour+obestatin (500 nmol/Kg/72 h). Mice without tumoral cells treatment were utilized as healthy controls.
Mice were weighed at set times over the 15-day period. The sterilized surgical material was used for the tissue extraction. Pancreases and muscles were carefully removed from each animal minimizing contamination with surrounding tissue or mouse hair. Pancreases and muscles were weighed. The skeletal muscles selected were: tibialis anterior, TA; extensor digitorum longus, EDL; gastrocnemius, GAST; soleus, SOL; and diaphragm, DIA. Pancreases were also measured with a scale (cm) and pictures were taken. • Histology—Pancreas samples for histology were fixed in 4% paraformaldehyde in PBS at room temperature overnight. After fixation, samples were dehydrated and embedded in paraffin blocks. For this study, 3-micron sections were cut from each block and placed on pre-cleaned slides (Thermo Fisher Scientific, Waltham, MA, USA). The sectioned tissue slides were covered with a thin layer of paraffin, stoked at 60° C. for 1 hour and stored protected from light at room temperature to preserve the antigenicity of sections. • Immunoblot—For immunoblot analysis, pancreases were immediately frozen in dry ice and stored at −80° C. until use. Tissues were homogenized using a TissueLyser II tissue homogenizer (Qiagen, Hilden, DE), in 200 μL of RIPA lysis buffer at 30 Hz for 3 min. The lysates were clarified by centrifugation (18,000×g, 15 min, 4° C.), and the protein concentration was quantified by the Quantipro™ BCA assay kit (Sigma-Aldrich, St. Louis, MO, US).

As to obestatin, under “obestatin 500 nmol/Kg/72 h”, the “effect on skeletal muscle weight loss, diaphragm (DIA)” value is “No effect”; the “reduction of skeletal muscle weight loss (weight recovery vs vehicle treated mice), extensor digitorum longus (EDL)” value is on record as 62.2±8.1%; the “reduction of skeletal muscle weight loss (weight recovery vs vehicle treated mice), gastrocnemius (GAS)” value was 10.6±3.2%; the “reduction of skeletal muscle weight loss (weight recovery vs vehicle treated mice), soleus (SOL)” value is recorded as 33.0±7.3%. Where the note is “obestatin 500 nmol/Kg/72 h”, the “reduction of skeletal muscle weight loss (weight recovery vs vehicle treated mice), tibialis anterior (TA)” value is 30.8±6.1%. Besides, the food intake result (obestatin treatment) is reported as “maintaining food intake”.
